Measurements reported in US10913781B2, “Pepducin design and use” (Tufts Medical Center, Inc., priority 2011, dated 2021).
Peptide text beside a SMILES is read from it. * marks the point of attachment. Palmitoyl = CCCCCCCCCCCCCCCC(=O)*

Tests used:
mast cell tryptase [1] = molecular target: T1, mast cell tryptase (Mus musculus, UniProt P21845); experiment: λ-carrageenan/kaolin-induced mouse paw edema (tryptase inhibitor); format: in vivo; conditions: C57BL/6 mice; 5 mg/kg s.c.
T1 construct: from tissue; host or cells: C57BL/6 mouse, hind paw in vivo
T1 sequence (P21845 32-276): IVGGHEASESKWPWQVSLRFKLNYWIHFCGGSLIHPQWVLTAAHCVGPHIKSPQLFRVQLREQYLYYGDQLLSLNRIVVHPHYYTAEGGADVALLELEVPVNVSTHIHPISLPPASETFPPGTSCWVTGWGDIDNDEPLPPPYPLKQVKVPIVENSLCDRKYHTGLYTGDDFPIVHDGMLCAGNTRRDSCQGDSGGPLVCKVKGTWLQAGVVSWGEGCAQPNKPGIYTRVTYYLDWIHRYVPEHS
Method: (A) Mast cells were treated with 2 mg/mL of mast cell degranulating agent 48/80 or 2% 1-carrageenan/4% kaolin. […] (B) P2pal-18S inhibits human neutrophil chemotaxis (n=6) to mast cell media. Human neutrophils were incubated with […] P2pal-18S, or […] mast cell tryptase inhibitor APC-366 and allowed to migrate 30 min toward CM from mast cells. (C) C57BL/6 mice (n=5) were pretreated with the tryptase inhibitor APC-366 (5 mg/kg, s.c.) or vehicle (20% DMSO) and then challenged with intraplantar injection of 1-carrageenan/kaolin. (D) Mast cell conditioned media (30 μL of 1-carrageenan/kaolin stimulated media) was injected into the hindpaws of C57BL/6 mice treated with 10 mg/kg P2pal-18S or vehicle (n=5). Data represent mean±SEM. #, P=0.07, *, P<0.05 and **, P<0.005. (E) Mast cell-deficient mice have a significant reduction in 1-carrageenan/kaolin induced paw edema (8 h time point, n=4-6) as compared to littermate controls. Mast-cell deficient mice or littermate controls with intact mast cells were treated with P2pal-18S (10 mg/kg, s.c.) or vehicle and hind paws challenged with 1-carrageenan/kaolin irritant. Error bars represent mean±SEM.
To examine whether mast cells and mast cell tryptase were activating PAR2 in the paw edema model in vivo, mice were depleted of mast cells through pretreatment with compound 48/80 (Carvalho M et al. Eur J Pharmacol (2005), 525: 161-169). […]

mast cell tryptase [2] = experiment: Human neutrophil chemotaxis toward mast cell conditioned media (tryptase inhibitor); format: cell-based; conditions: 10 mM APC-366; 30 min
Method: (A) Mast cells were treated with 2 mg/mL of mast cell degranulating agent 48/80 or 2% 1-carrageenan/4% kaolin. […] (B) P2pal-18S inhibits human neutrophil chemotaxis (n=6) to mast cell media. Human neutrophils were incubated with […] P2pal-18S, or […] mast cell tryptase inhibitor APC-366 and allowed to migrate 30 min toward CM from mast cells. (C) C57BL/6 mice (n=5) were pretreated with the tryptase inhibitor APC-366 (5 mg/kg, s.c.) or vehicle (20% DMSO) and then challenged with intraplantar injection of 1-carrageenan/kaolin. (D) Mast cell conditioned media (30 μL of 1-carrageenan/kaolin stimulated media) was injected into the hindpaws of C57BL/6 mice treated with 10 mg/kg P2pal-18S or vehicle (n=5). Data represent mean±SEM. #, P=0.07, *, P<0.05 and **, P<0.005. (E) Mast cell-deficient mice have a significant reduction in 1-carrageenan/kaolin induced paw edema (8 h time point, n=4-6) as compared to littermate controls. Mast-cell deficient mice or littermate controls with intact mast cells were treated with P2pal-18S (10 mg/kg, s.c.) or vehicle and hind paws challenged with 1-carrageenan/kaolin irritant. Error bars represent mean±SEM. […]

PAR2 [3] = molecular target: T2, PAR2 (Homo sapiens, UniProt P55085); experiment: Agonist | (%)^†; parameters: SW620 colon adenocarcinoma cells that endogenously express PAR2; endogenous in cells; host or cells: SW620 (in A7 the SW620 cells were additionally stably transfected with PAR1); conditions: 4 µM
Target sequence in this assay (P55085 26-397 limits assumed): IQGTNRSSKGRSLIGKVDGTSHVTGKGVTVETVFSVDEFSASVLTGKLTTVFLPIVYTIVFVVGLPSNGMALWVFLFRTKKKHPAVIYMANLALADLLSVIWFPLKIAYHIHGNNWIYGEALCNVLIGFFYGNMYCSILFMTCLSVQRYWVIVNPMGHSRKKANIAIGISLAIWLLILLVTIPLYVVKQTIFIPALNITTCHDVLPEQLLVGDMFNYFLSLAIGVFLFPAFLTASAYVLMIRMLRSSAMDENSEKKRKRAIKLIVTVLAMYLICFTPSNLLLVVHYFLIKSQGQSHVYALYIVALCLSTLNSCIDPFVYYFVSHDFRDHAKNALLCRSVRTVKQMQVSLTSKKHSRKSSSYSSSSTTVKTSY
Method: (§2) (A) Agonist and antagonist activity of third intracellular (i3) loop PAR2 pepducins (structure shown on top) using calcium flux assays with SW620 colon adenocarcinoma cells that endogenously express PAR2. Each column of three calcium flux traces corresponds to the i3 pepducin sequence shown above. The top row is the agonist activity of 3-4 μM pepducin and the middle row is the agonist activity of 14-15 μM pepducin. […] Final concentration of DMSO vehicle was 0.2%. […] (C) Agonist activity for each pepducin from (A) is reported as initial velocity of calcium flux at 4 μM pepducin (†), or at 14-15 μM pepducin (‡).

PAR2 [4] = molecular target: T2, PAR2; experiment: Calcium flux screen for PAR2 pepducin agonist and antagonist activity in SW620 cells; format: cell-based; parameters: SW620 colon adenocarcinoma cells that endogenously express PAR2; endogenous in cells; host or cells: SW620 (in A7 the SW620 cells were additionally stably transfected with PAR1)
Target sequence in this assay (P55085 26-397): as the sequence (P55085 26-397 limits assumed) above
Method: as §2

PAR1 [5] = molecular target: T3, PAR1 (Homo sapiens, UniProt P25116); experiment: Calcium flux in SW620 cells stably transfected with PAR1, TFLLRN stimulus; format: cell-based; conditions: 30 μM TFLLRN
T3 sequence (P25116 22-425): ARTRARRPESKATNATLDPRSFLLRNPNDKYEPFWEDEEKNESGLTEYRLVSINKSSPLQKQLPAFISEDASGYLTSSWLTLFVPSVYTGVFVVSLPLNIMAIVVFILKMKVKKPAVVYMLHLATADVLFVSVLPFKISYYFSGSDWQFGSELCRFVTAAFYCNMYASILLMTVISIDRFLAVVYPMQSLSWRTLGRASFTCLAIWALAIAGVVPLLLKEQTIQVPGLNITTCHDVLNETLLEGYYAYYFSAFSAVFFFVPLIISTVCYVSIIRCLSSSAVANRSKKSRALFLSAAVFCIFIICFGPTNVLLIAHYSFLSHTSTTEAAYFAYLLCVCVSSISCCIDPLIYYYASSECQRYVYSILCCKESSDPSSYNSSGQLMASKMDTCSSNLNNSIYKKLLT
Method: (§1) (A) PAR2 antagonist pepducins P2pal-18S and P2pal-14GQ inhibit calcium flux induced by PAR2 (SLIGRL) (SEQ ID NO:4) but not PAR1 (TFLLRN) (SEQ ID NO:2) agonists. SW620 cells were stably transfected with PAR1 and pretreated for 1 min with various concentrations of P2pal-18S or P2pal-14GQ and then stimulated with 30 μM PAR agonist. […] Cells were stimulated with 1 μM TFLLRN (SEQ ID NO:2), 1 μM SLIGRL (SEQ ID NO:4) or 100 μM AYPGKF (SEQ ID NO:5) and [^3H]-InsP formation measured over 30 min. (C) SW620 cells were treated with the indicated concentrations of P2pal-18S or P2pal-14GQ in the upper well of an 8-μm pore Boyden chamber and allowed to migrate for 18 h towards 10 μM of the PAR2 specific agonist SLIGRL in the lower chamber. The migration to RPMI/0.1% FBS represents random migration. (D) Migration of HEK cells transiently transfected with PAR2 (wild-type, WT), or PAR2-R36A/PAR2-RQ toward chemotactic gradients of 30 nM trypsin in the absence or presence of the indicated concentration of P2pal-18S for 18 h in a transwell apparatus ([…]). Data (n=2-4) are mean±SEM. *, P<0.05 and **, P<0.005.

PAR2 [6] = molecular target: T2, PAR2; experiment: SW620 cell migration toward SLIGRL (Boyden chamber, 18 h); format: cell-based; parameters: SW620 colon adenocarcinoma cells that endogenously express PAR2; endogenous in cells; host or cells: SW620 (in A7 the SW620 cells were additionally stably transfected with PAR1); conditions: 10 μM SLIGRL
Method: as §1
Target sequence in this assay (P55085 26-397): as the sequence (P55085 26-397 limits assumed) above

PAR4 = molecular target: T4, PAR4 (Homo sapiens, UniProt Q96RI0); experiment: [3H]-InsP formation in COS7 cells transfected with PAR4; format: cell-based; parameters: expressed in transfected cells; host or cells: COS7; conditions: 100 μM AYPGKF, 30 min
T4 sequence (Q96RI0 18-385): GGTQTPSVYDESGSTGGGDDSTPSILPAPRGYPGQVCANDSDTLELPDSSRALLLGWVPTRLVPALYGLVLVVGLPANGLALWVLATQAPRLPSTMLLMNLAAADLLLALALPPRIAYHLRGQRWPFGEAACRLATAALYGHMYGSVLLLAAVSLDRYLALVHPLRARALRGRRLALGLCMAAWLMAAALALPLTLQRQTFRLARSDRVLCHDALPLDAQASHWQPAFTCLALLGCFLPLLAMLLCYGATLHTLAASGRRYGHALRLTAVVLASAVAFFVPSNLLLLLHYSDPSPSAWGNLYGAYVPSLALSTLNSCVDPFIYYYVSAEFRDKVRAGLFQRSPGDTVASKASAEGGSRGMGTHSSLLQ
Method: as §1

PAR2 [7] = molecular target: T2, PAR2; experiment: Agonist | (%)^‡; parameters: SW620 colon adenocarcinoma cells that endogenously express PAR2; endogenous in cells; host or cells: SW620 (in A7 the SW620 cells were additionally stably transfected with PAR1)
Target sequence in this assay (P55085 26-397 limits assumed): as the sequence (P55085 26-397 limits assumed) above

PAR1 [8] = molecular target: T3, PAR1; experiment: [3H]-InsP formation in COS7 cells transfected with PAR1; format: cell-based; parameters: expressed in transfected cells; host or cells: COS7; conditions: 1 μM TFLLRN, 30 min
Method: as §1

PAR1 [9] = molecular target: T3, PAR1; experiment: Lung cancer cell line migration toward NIH-3T3 conditioned media (Boyden chamber); format: cell-based; parameters: endogenous in cells; host or cells: A549, HOP62, H1299, H522, H226, HOP92 lung carcinoma lines; conditions: A549, HOP62, H1299; pepducins in lower well
Text: FIG. 11 illustrates PAR expression profile in lung cancer. Lung cancer cell lines (n=7) from the NCI-60 panel were characterized for surface expression of PAR1, PAR2, PAR3, and PAR4 (A) as previously described in Nguyen et al., 2006. (B): PAR mRNA expression profile in patient samples. Quantitative real-time PCR analysis of PAR1 to PAR4 (corrected for actin expression as internal control) and expressed as fold increase over nonmalignant lung tissue. Migration of lung carcinoma cell lines toward fibroblast conditioned media is expressed as cell number ±SD. (C): Silencing of PAR1 expression in A549 and HOP62 cells with shPAR1 or vector control. Surface expression of PAR1 was determined by flow cytometry using SFLLR-Ab. (D): Migration of A549 and HOP62 lung cancer cells toward NIH-3T3 conditioned media supplemented with RWJ-56110 (10 μmol/L) and SCH7979 (50 μmol/L) or vehicle (0.2% dimethyl sulfoxide). Migration of lung cancer cells treated with shPAR1 treatment or appropriate controls toward NIH-3T3 conditioned media. Basal migration toward conditioned media (vehicle treated or vector control) was normalized to 100%. *P<0.05, **P<0.01.
FIG. 12 illustrates that PAR1 is a promigratory factor in lung cancer cells. […] (G): Cell from primary lung tumors or nonmalignant control were pretreated with PAR1 pepducins and migration was determined (*P<0.05, **P<0.01). […]

For `NC(=O)[C@@H]1CCCN1C(=O)[C@H](CCCN=C(N)N)NC(=O)c1ccc2ccccc2c1O` [APC-366], the “Protection in λ-carrageenan/kaolin-induced paw edema” value (mast cell tryptase [1]) was 40% and the “Inhibition of chemotactic migration toward tryptase-containing mast cell media” value (mast cell tryptase [2]) was “completely inhibited”.

`CCCCCCCCCCCCCCCC(=O)NCC(=O)N[C@@H](CC(=O)O)C(=O)N[C@@H](CCC(=O)O)C(=O)N[C@@H](CC(N)=O)C(=O)N[C@@H](CO)C(=O)N[C@@H](CCC(=O)O)C(=O)N[C@@H](CCCCN)C(=O)N[C@@H](CCCCN)C(=O)N[C@@H](CCCNC(=N)N)C(=O)N[C@@H](CCCCN)C(=O)N[C@@H](CCC(N)=O)C(=O)N[C@@H](C)C(=O)N[C@H](C(=O)N[C@@H](CCCCN)C(N)=O)[C@@H](C)CC` [P2pal-14GQ] (Palmitoyl-GDENSEKKRKQAIK-NH2) was tested, and the “Agonist | (%)^†” value (PAR2 [3]) was 3%, the “Antagonist activity (inhibition of SLIGRL calcium flux, area under the curve)” value (PAR2 [4]; 6 μM pepducin, 1 min pretreatment, against 100 μM SLIGRL) was 53% and the “Agonist activity (calcium flux)” value (PAR2 [4]; 3-4 μM and 14-15 μM pepducin) was “agonist activity remained insignificant or insubstantial”. The “Inhibition of PAR1 calcium flux” value (PAR1 [5]) was “selective for PAR2 and not PAR1”, the “Suppression of SW620 migration to SLIGRL” value (PAR2 [6]) was “not as efficacious in suppressing migration of SW620 cells to SLIGRL as compared to P2pal-18S” and the “Inhibition of InsP signaling from PAR4” value (PAR4) was “do not inhibit”. The “Agonist | (%)^‡” value (PAR2 [7]) was 2% and the “Inhibition of InsP signaling from PAR1” value (PAR1 [8]) was “do not inhibit”.

In the case of “P1pal-19EE: negative control PAR1 i3 pepducin, 19 residues, S309 to E and A311 to E; SEQ ID NO:27 (Palmitoyl-ECESSSAEANRSKKERELF-NH2)”, the “Suppression of migration of PAR1-expressing adenocarcinomas” value (PAR1 [9]) is reported as “no effect on migration”.
